Reference: patent publication US20170354669A1, “DISRUPTION OF THE INTERACTION BETWEEN AMYLOID BETA PEPTIDE AND DIETARY LIPIDS” (The Trustees of Columbia University in the City of New York, priority 2016, published 2017)
Where “and” joins values, the source holds several entries; their conditions need not be identical. Equal entries are not always repeated. Entries after “also recorded” stand apart in the source; their conditions may differ.

Columns and labels:
[1] = target: T1, Aβ42-FAM bound lipids containing 22:6 (Homo sapiens, UniProt P05067); assay: Competition of Aβ42-FAM binding to plate-bound 22:6 lipid; settings: competitor peptide 5×, 1 μM; FIG. 1C
T1 construct: SensoLyte Fluorescent β-Amyloid1-42 Sampler Kit, Anaspec; purchased Anaspec
Method: Scrambled Aβ or unlabeled Aβ42 peptides (Anaspec) were diluted to 100 μM as above and then diluted in SuperBlock Blocking buffer to 1 μM, incubated for 1 hour at room temperature. Plates were washed and FAM fluorescence was read as above. Lipid containing long chain polyunsaturated fatty acid 22:6, docosahexaenoic acid (DHA) and an amine containing headgroup, phosphatidylethanoloamine (PE) was bound to maleic anhydride activated plates which bind to free primary amine functional groups at neutral and alkaline pH. All binding and washing steps were done in PBS, PBST and SuperBlock PBS to maintain pH at 7.2. A control acyl chain lipid hypothesized not to bind to Aβ peptide was 18:0, stearic acid containing PE (di18:0). After lipids were bound and unreacted binding sites were blocked using SuperBlock, Aβ42 peptide fluorescently tagged with FAM (Anaspec) was incubated with lipid bound wells. […] The dissociation constant Kd was calculated to be 300 nM. Specific binding was calculated by subtracting background binding of di18:0 PE.

APPsw+ mice [2] = assay: Nesting behavior after intranasal treatment; format: in vivo; settings: 10 days intranasal low dose 0.5 mg/kg every other day, vs saline treated APPsw+, FIG. 4A
Method: SDPC was obtained from Avanti Polar Lipids (850472C) in chloroform, dried under vacuum conditions and resuspended in 0.9% saline (0.9% sodium chloride injection, USP, NDC 0409-7983-61, Hospira) containing 0.2% (weight:volume) methyl cellulose (average Mn 40,000, viscosity: 400 cP, CAS 9004-67-5, Sigma-Aldrich 274429) to aid in solubilization. A control solution of 0.9% saline containing 0.2% methyl cellulose was prepared at the same time without SDPC. A concentration of 3 mg/ml was used for doses 1-15 and 12 mg/ml was used for doses 16-18 (FIG. 3). Brief (3-5 minutes) bath sonication was used to improve solubility of 12 mg/ml concentration. Mice were treated for 10 days at a low dose of SDPC intranasally administered 2.5 uL each nostril (5 μL total dose) for 0.5 mg/kg every other day assuming average mouse weight of 30 g (0.03 kg) (FIG. 3). After 10 days, dose was escalated to 2 mg/kg every other day for an additional 19 days (total treatment time […]). Doses 16-18 were administered daily. Non-invasive behavioral testing using novel object recognition (118) and Nesting behavior (114) were used to assess behavioral function. Deficits were expected in APPsw+ (Tg) mice and compared to wild type littermates of the same age (13-14 months). […]

APPsw+ mice [3] = assay: Novel object recognition (NOR) training and testing, activity and exploration; format: in vivo
Method: FIGS. 6A-6B. 30 days treatment with escalating dose SDPC. (A) Mice were placed in a box with two identical objects for 10 minutes on the training day 1. […] One object was replaced with a novel object for testing (NOD index). The same data is shown to scale in FIG. 6B (Testing (immediate)). Twenty-four hours later (Testing (24 hours)), mice were placed in the same context with one of the original identical objects (Familiar) and a second novel object (Novel). The time spent with each object was recorded. (B) For testing, novel object discrimination (NOD index) is assessed using the equation [(time novel)/(time familiar+time novel)]. NOD index of 0.5 represents equal time with each object. NOD>0.5 represents more time spent with novel object. Standard error is shown for means of Saline treated APPsw+(control) (n=4); SDPC treated APPsw+ (n=5) and wild type receiving no treatment (n=4). Significance was determined for […] using Student's t-test. SDPC was obtained from Avanti Polar Lipids (850472C) in chloroform, dried under vacuum conditions and resuspended in 0.9% saline (0.9% sodium chloride injection, USP, NDC 0409-7983-61, Hospira) containing 0.2% (weight:volume) methyl cellulose (average Mn 40,000, viscosity: 400 cP, CAS 9004-67-5, Sigma-Aldrich 274429) to aid in solubilization. A control solution of 0.9% saline containing 0.2% methyl cellulose was prepared at the same time without SDPC. A concentration of 3 mg/ml was used for doses 1-15 and 12 mg/ml was used for doses 16-18 (FIG. 3). Brief (3-5 minutes) bath sonication was used to improve solubility of 12 mg/ml concentration. Mice were treated for 10 days at a low dose of SDPC intranasally administered 2.5 uL each nostril (5 μL total dose) for 0.5 mg/kg every other day assuming average mouse weight of 30 g (0.03 kg) (FIG. 3). After 10 days, dose was escalated to 2 mg/kg every other day for an additional 19 days (total treatment time […]). Doses 16-18 were administered daily. Non-invasive behavioral testing using novel object recognition (118) and Nesting behavior (114) were used to assess behavioral function. Deficits were expected in APPsw+ (Tg) mice and compared to wild type littermates of the same age (13-14 months). APPsw+ mice were treated (Tx) with either control solution of 0.9% saline containing 0.2% methyl cellulose [Saline] or SDPC in 0.9% saline containing 0.2% methyl cellulose [SDPC]. […] Significant changes were seen using Student's t-test comparing SDPC and wild type (non-treated) [WT Ntx] and comparing saline and WT Ntx, but not when comparing SDPC and saline groups likely due to small sample size (n=4-5).

APPsw+ mice [4] = assay: Open Field testing; format: in vivo; settings: 10 days intranasal low dose, following NOR testing; FIG. 4D
Method: FIGS. 4A-4D. 10 days treatment with low dose SDPC. (A) After 10 days treatment (Tx) with low dose phosphatidylcholine (PC) containing docosahexaenoyl (22:6) and stearoyl (18:0) acyl chains, 18:0-22:6 PC; 1-stearoyl-2-docosahexaenoyl-sn-glycero-3-phosphocholine (CAS Number 59403-52-0; Synonyms: 1-octadecanoyl-2-(4Z,7Z,10Z,13Z,16Z,19Z-docosahexaenoyI)-sn-glycero-3-phosphocholine and PC(18:0/22:6(4Z,7Z,10Z,13Z,16Z,19Z))) (SDPC) intranasally, nesting score was assessed as described before (114). The number of nestlettes (from 3 initially placed in cage) was estimated and exact weight of remaining nestlettes was determined in grams (g) from initial 3 nestlettes (approximately 2 g). (B) Activity during novel object recognition (NOR) training was assessed after 10 days intranasal SDPC. Grooming behavior, free rearing, wall rearing and center crossing events are shown and were summed in total events. (C) Time spent with each identical object during NOR training. (D) Activity during Open Field testing 24 hours after NOR training (note, no difference in novel object discrimination (NOD) index was found. Standard error is shown for means of Saline treated APPsw+(control) (n=4); SDPC treated APPsw+ (n=5) and wild type receiving no treatment (n=4). Significance was determined for […] using Student's t-test. […]

APPsw+ mice [5] = assay: Novel object recognition (NOR) training and testing, activity and exploration; format: in vivo; settings: 10 days intranasal low dose
Aβ42 = target: T2, Aβ42 (Homo sapiens, UniProt P05067); assay: Lipid binding assay: Aβ42-FAM binding to plate-bound amine-containing lipids
T2 construct: SensoLyte Fluorescent β-Amyloid1-42 Sampler Kit, Anaspec; purchased Anaspec
Excerpt: Maleic Anhydride Activated plates (Pierce Amine-binding, 96-well plates, Thermo Scientific) were washed in wash buffer (PBS: Phosphate buffered saline, 0.15 M sodium chloride, pH 7.2 containing 0.05% Tween-20 Detergent, PBST, Thermo Scientific) 4 times to activate reactive maleic anhydride functional group. Amine containing lipids were PE containing docosahexaenoyl (22:6) and stearoyl (18:0) acyl chains (22:6/18:0 PE) or two stearoyl acyl chains (di18:0 PE) were from Avanti Polar Lipids. 22:6/18:0 PE was obtained in chloroform, dried down and solubilized at 200 pmol/μL in 1% n-octylglucoside (NOG, Santa Cruz) in PBS and sonicated for […]. di18:0 PE was obtained as a powder, solubilized at 200 pmol/μl in 1% NOG and bath sonicated for 5 minutes. Lipids were incubated at a volume of 100 μL in activated maleic anhydride plates at increasing concentration at 4° C. in PBS/1% NOG. After incubation, lipids were removed and SuperBlock Blocking Buffer/PBS (Thermo) was added at a volume of […] for 1 hour at room temperature. Plates were then washed 4 times with PBST (Thermo Scientific). Fluorescently labeled amyloid β-peptide (SensoLyte Fluorescent β-Amyloid1-42 Sampler Kit, Anaspec) was prepared with […], Component B, Solvent for β-amyloid (Anaspec) as per the commercial protocol and then diluted in deionized water to a concentration of 100 μM. […] Plates were then washed 4 times in PBST and fluorescence was detected using Tecan Infinite 200 at wavelengths 494/521 (excitation, emission) using the Optimal Gain setting.
Assays were done in triplicate wells and reported as mean+/−standard error. Binding kinetics and best fit curve fitting were accomplished using Prism Graphpad software.
Lipid containing long chain polyunsaturated fatty acid 22:6, docosahexaenoic acid (DHA) and an amine containing headgroup, phosphatidylethanoloamine (PE) was bound to maleic anhydride activated plates which bind to free primary amine functional groups at neutral and alkaline pH. […] Specific binding was calculated by subtracting background binding of di18:0 PE.

unlabeled Aβ42 peptide: unlabeled Aβ42 peptide (Anaspec) used as competitor
competitive disruption of Aβ42-FAM binding to 22:6 lipid [1]: competitively disrupted

CC/C=C\C/C=C\C/C=C\C/C=C\C/C=C\C/C=C\CCC(=O)O[C@H](COC(=O)CCCCCCCCCCCCCCCCC)COP(=O)([O-])OCC[N+](C)(C)C [SDPC, 1-stearoyl-2-docosahexaenoyl-sn-glycero-3-phosphocholine]
nesting behavior (APPsw+ mice [2]): trend toward improvement; also recorded: non-significant trend for improvement
discrimination of one displaced identical object (hippocampal function) (APPsw+ mice [3]; 30 days escalating dose, training day 2, FIG. 6A): no discrimination was determined
number of wall rears and total activity events (APPsw+ mice [3]; 30 days intranasal escalated dose (to 2 mg/kg), SDPC vs saline treated APPsw+, FIG. 5): significant improvement
NOR deficits: time spent with a novel object (APPsw+ mice [3]; 30 days intranasal escalated dose, FIG. 6): significant amelioration
novel object discrimination index (NOD index) (APPsw+ mice [3]; 30 days intranasal escalated dose, FIG. 6B): significant changes were not observed; also recorded: trend for amelioration
activity in the open field test (APPsw+ mice [4]): continued improvement of activity level; also recorded: restored to the level of wild type non-treated mice
NOR discrimination (NOD index) 24 hours after training (APPsw+ mice [5]): no discrimination was found; also recorded: no difference
activity during NOR training (wall rearing, free rearing, total activity level) (APPsw+ mice [5]; vs saline treated APPsw+, FIG. 4B): trend toward improvement; also recorded: non-significant trend for improvement
exploration: time spent with identical objects during NOR training (APPsw+ mice [5]; FIG. 4C): trend toward improved exploratory behavior; also recorded: non-significant trend toward exploration activity

CCCCCCCCCCCCCCCCCC(=O)OC[C@H](COP(=O)(O)OCCN)OC(=O)CCCCCCCCCCCCCCCCC [di18:0 PE, reference compound]
binding of Aβ42-FAM to plate-bound lipid (Aβ42; FIGS. 1A and 1B, di18:0 at concentrations 10,000 pmol/well and below): very low binding activity
binding of Aβ42-FAM to plate-bound lipid at the highest concentrations (Aβ42; only at the highest concentrations of lipid): modest binding

CC/C=C\C/C=C\C/C=C\C/C=C\C/C=C\C/C=C\CCC(=O)O [DHA, docosahexaenoic acid]
Kd (Aβ42; read-out: dissociation constant Kd of Aβ binding to DHA): ~300 nM and 300 nM
